This is an account of results in patent US20150344540A1, “NOVEL GLP-1 RECEPTOR AGONISTS WITH CHOLESTEROL EFFLUX ACTIVITY” (NOVO NORDISK A/S, priority 2012, published 2015).

Where a SMILES comes first, the peptide text is derived from it. [ ]: non-standard residue; d: D form. Aib = CC(C)(N)C(=O)O

In one test the test system is Mouse monocyte/macrophage cell line, RAW 264.7. Briefly: Cholesterol efflux assay (3H-cholesterol, macrophage cell line). It is filed as cell-based. The conditions noted are these: RAW 264.7, 4 hrs incubation, 0.1% human serum albumin, ABCA1-mediated efflux.
As to `CC[C@H](C)[C@H](NC(=O)[C@H](Cc1ccccc1)NC(=O)[C@H](CCC(=O)O)NC(=O)[C@H](CCCNC(=N)N)NC(=O)[C@@H](NC(=O)[C@H](C)NC(=O)[C@H](CCC(=O)O)NC(=O)[C@H](CCC(=O)O)NC(=O)[C@H](CCC(=O)O)NC(=O)[C@H](CCSC)NC(=O)[C@H](CCC(N)=O)NC(=O)[C@H](CCCCN)NC(=O)[C@H](CO)NC(=O)[C@H](CC(C)C)NC(=O)[C@H](CC(=O)O)NC(=O)[C@H](CO)NC(=O)[C@@H](NC(=O)[C@H](Cc1ccccc1)NC(=O)[C@@H](NC(=O)CNC(=O)[C@H](CCC(=O)O)NC(=O)C(C)(C)NC(=O)[C@@H](N)Cc1c[nH]cn1)[C@@H](C)O)[C@@H](C)O)C(C)C)C(=O)N[C@@H](CCC(=O)O)C(=O)N[C@@H](Cc1c[nH]c2ccccc12)C(=O)N[C@@H](CC(C)C)C(=O)N[C@@H](CCCCN)C(=O)N[C@@H](CC(N)=O)C(=O)N[C@@H](CCCCN)C(=O)NC(C)(C)C(=O)N[C@@H](CC(C)C)C(=O)N[C@@H](CO)C(=O)N[C@@H](Cc1ccccc1)C(=O)N[C@@H](CC(C)C)C(=O)N[C@@H](CCC(=O)O)C(=O)N[C@@H](CC(C)C)C(=O)N[C@@H](CC(C)C)C(N)=O` [Compound 36, [Aib2,Glu21,Lys29,Aib30,Leu31,Phe33,Leu34,Glu35,Leu36,Leu371-Exendin-4-(1-37)-peptide amide] (H-H[Aib]EGTFTSDLSKQMEEEAVREFIEWLKNK[Aib]LSFLELL-NH2; N-terminus assumed), the “4 h Cholesterol Efflux Emax” value was 95%.
The same measure, in the same setting: under `CC[C@H](C)[C@H](NC(=O)[C@H](Cc1ccccc1)NC(=O)[C@H](CCC(=O)O)NC(=O)[C@H](CCCNC(=N)N)NC(=O)[C@@H](NC(=O)[C@H](C)NC(=O)[C@H](CCC(=O)O)NC(=O)[C@H](CCC(=O)O)NC(=O)[C@H](CCC(=O)O)NC(=O)[C@H](CCSC)NC(=O)[C@H](CCC(N)=O)NC(=O)[C@H](CCCCN)NC(=O)[C@H](CO)NC(=O)[C@H](CC(C)C)NC(=O)[C@H](CC(=O)O)NC(=O)[C@H](CO)NC(=O)[C@@H](NC(=O)[C@H](Cc1ccccc1)NC(=O)[C@@H](NC(=O)CNC(=O)[C@H](CCC(=O)O)NC(=O)C(C)(C)NC(=O)[C@@H](N)Cc1c[nH]cn1)[C@@H](C)O)[C@@H](C)O)C(C)C)C(=O)N[C@@H](CCC(=O)O)C(=O)N[C@@H](Cc1c[nH]c2ccccc12)C(=O)N[C@@H](CC(C)C)C(=O)N[C@@H](CCCCN)C(=O)N[C@@H](CC(N)=O)C(=O)N[C@@H](CCCCN)C(=O)NC(C)(C)C(=O)N[C@@H](CC(C)C)C(=O)N[C@@H](CCC(=O)O)C(=O)N[C@@H](Cc1ccccc1)C(=O)N[C@@H](CC(C)C)C(N)=O` [Compound 42, [Aib2,Glu21, Lvs29,Aib30,Leu31,Glu32,Phe33,Leu34]-Exendin-4-(1-34)-peptide amide] (H-H[Aib]EGTFTSDLSKQMEEEAVREFIEWLKNK[Aib]LEFL-NH2; N-terminus assumed) stands 105%; under `CC[C@H](C)[C@H](NC(=O)[C@H](Cc1ccccc1)NC(=O)[C@H](CCC(=O)O)NC(=O)[C@H](CCCCN)NC(=O)[C@@H](NC(=O)[C@H](C)NC(=O)[C@H](CCC(=O)O)NC(=O)CNC(=O)[C@H](CCC(=O)O)NC(=O)[C@H](CC(C)C)NC(=O)[C@H](Cc1ccc(O)cc1)NC(=O)[C@H](CO)NC(=O)[C@H](CO)NC(=O)[C@@H](NC(=O)[C@H](CC(=O)O)NC(=O)[C@H](CO)NC(=O)[C@@H](NC(=O)[C@H](Cc1ccccc1)NC(=O)[C@@H](NC(=O)CNC(=O)[C@H](CCC(=O)O)NC(=O)C(C)(C)NC(=O)[C@@H](N)Cc1c[nH]cn1)[C@@H](C)O)[C@@H](C)O)C(C)C)C(C)C)C(=O)N[C@@H](C)C(=O)N[C@@H](Cc1c[nH]c2ccccc12)C(=O)N[C@@H](CC(C)C)C(=O)N[C@H](C(=O)N[C@@H](CCC(=O)O)C(=O)N[C@@H](CCCCN)C(=O)N[C@@H](CC(C)C)C(=O)N[C@@H](CCCCN)C(=O)N[C@@H](CCC(=O)O)C(=O)N[C@@H](CC(C)C)C(=O)N[C@H](C(N)=O)C(C)C)C(C)C` [Compound 20, [Aib8,Glu23,Val25,Glu34,Lys35,Leu36,Lys37]-GLP-1-(7-37)-peptidyl-Glu-Leu-Val amide] (H-H[Aib]EGTFTSDVSSYLEGEAVKEFIAWLVEKLKELV-NH2; N-terminus assumed), 102%.
On the same count and under the same terms, under `CC[C@H](C)[C@H](NC(=O)[C@H](Cc1ccccc1)NC(=O)[C@H](CCC(N)=O)NC(=O)[C@H](CCCCN)NC(=O)[C@@H](NC(=O)[C@H](C)NC(=O)[C@H](CCC(N)=O)NC(=O)CNC(=O)[C@H](CCC(=O)O)NC(=O)[C@H](CC(C)C)NC(=O)[C@H](Cc1ccc(O)cc1)NC(=O)[C@H](CO)NC(=O)[C@H](CO)NC(=O)[C@@H](NC(=O)[C@H](CC(=O)O)NC(=O)[C@H](CO)NC(=O)[C@@H](NC(=O)[C@H](Cc1ccccc1)NC(=O)[C@@H](NC(=O)CNC(=O)[C@H](CCC(=O)O)NC(=O)C(C)(C)NC(=O)[C@@H](N)Cc1c[nH]cn1)[C@@H](C)O)[C@@H](C)O)C(C)C)C(C)C)C(=O)N[C@@H](C)C(=O)N[C@@H](Cc1c[nH]c2ccccc12)C(=O)N[C@@H](CC(C)C)C(=O)N[C@H](C(=O)N[C@@H](CCC(=O)O)C(=O)N[C@@H](CCCCN)C(=O)NC(C)(C)C(=O)N[C@@H](C)C(=O)N[C@@H](CCC(=O)O)C(=O)N[C@@H](Cc1ccccc1)C(=O)N[C@@H](CC(C)C)C(N)=O)C(C)C` [Compound 72] (H-H[Aib]EGTFTSDVSSYLEGQAVKQFIAWLVEK[Aib]AEFL-NH2) stands 78%; under `CC[C@H](C)[C@H](NC(=O)[C@H](Cc1ccccc1)NC(=O)[C@H](CCC(=O)O)NC(=O)[C@H](CCCCN)NC(=O)[C@@H](NC(=O)[C@H](C)NC(=O)[C@H](CCC(=O)O)NC(=O)CNC(=O)[C@H](CCC(=O)O)NC(=O)[C@H](CC(C)C)NC(=O)[C@H](Cc1ccc(O)cc1)NC(=O)[C@H](CO)NC(=O)[C@H](CO)NC(=O)[C@@H](NC(=O)[C@H](CC(=O)O)NC(=O)[C@H](CO)NC(=O)[C@@H](NC(=O)[C@H](Cc1ccccc1)NC(=O)[C@@H](NC(=O)CNC(=O)[C@H](CCC(=O)O)NC(=O)C(C)(C)NC(=O)[C@@H](N)Cc1c[nH]cn1)[C@@H](C)O)[C@@H](C)O)C(C)C)C(C)C)C(=O)N[C@@H](C)C(=O)N[C@@H](Cc1c[nH]c2ccccc12)C(=O)N[C@@H](CC(C)C)C(=O)N[C@H](C(=O)N[C@@H](CCCCN)C(=O)N[C@@H](CCCCN)C(=O)NC(C)(C)C(=O)N[C@@H](CCCCN)C(=O)N[C@@H](CCC(=O)O)C(=O)N[C@@H](Cc1ccccc1)C(=O)N[C@@H](CC(C)C)C(N)=O)C(C)C` [Compound 9, [Aib8,Glu23,Val25,Lys35,Aib36,Lys37]-GLP-1-(7-37)-peptidyl-Glu-Phe-Leu amide] (H-H[Aib]EGTFTSDVSSYLEGEAVKEFIAWLVKK[Aib]KEFL-NH2), 87%.

Still in this test, the particulars now being: read-out: 4 h Cholesterol Efflux EC50; RAW 264.7, 4 hrs incubation, 0.1% human serum albumin, ABCA1-mediated efflux (CPT-cAMP induced minus non-induced).
For `CC[C@H](C)[C@H](NC(=O)[C@H](Cc1ccccc1)NC(=O)[C@H](CCC(=O)O)NC(=O)[C@H](CCCCN)NC(=O)[C@@H](NC(=O)[C@H](C)NC(=O)[C@H](CCC(=O)O)NC(=O)CNC(=O)[C@H](CCC(=O)O)NC(=O)[C@H](CC(C)C)NC(=O)[C@H](Cc1ccc(O)cc1)NC(=O)[C@H](CO)NC(=O)[C@H](CO)NC(=O)[C@@H](NC(=O)[C@H](CC(=O)O)NC(=O)[C@H](CO)NC(=O)[C@@H](NC(=O)[C@H](Cc1ccccc1)NC(=O)[C@@H](NC(=O)CNC(=O)[C@H](CCC(=O)O)NC(=O)C(C)(C)NC(=O)[C@@H](N)Cc1c[nH]cn1)[C@@H](C)O)[C@@H](C)O)C(C)C)C(C)C)C(=O)N[C@@H](C)C(=O)N[C@@H](Cc1c[nH]c2ccccc12)C(=O)N[C@@H](CC(C)C)C(=O)N[C@H](C(=O)N[C@@H](CCC(=O)O)C(=O)N[C@@H](CCCCN)C(=O)N[C@@H](CC(C)C)C(=O)N[C@@H](CCCCN)C(=O)N[C@@H](CCC(=O)O)C(=O)N[C@@H](CC(C)C)C(=O)N[C@H](C(N)=O)C(C)C)C(C)C` [Compound 20, [Aib8,Glu23,Val25,Glu34,Lys35,Leu36,Lys37]-GLP-1-(7-37)-peptidyl-Glu-Leu-Val amide] (H-H[Aib]EGTFTSDVSSYLEGEAVKEFIAWLVEKLKELV-NH2; N-terminus assumed), the EC50 – broadly, the concentration at which the effect is half-maximal – amounted to 560 nM.
